Laboratory results published in PubChem BioAssay (NCI).
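Compound exposure: 48 hours, 5 concentrations, 96-well plates. At the TGI there is no net growth.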

Key:
Assay in all cases: inhibition of tumour cell growth, NCI panel, 48 h
[1] = test system: SF-268 CNS
[2] = test system: HOP-62 NSCLC
[3] = test system: SN12C renal
[4] = test system: SR leukemia
[5] = test system: SNB-19 CNS
[6] = test system: HCT-15 colon
[7] = test system: HCT-116 colon
[8] = test system: COLO 205 colon
[9] = test system: MDA-MB-435
[10] = test system: SF-539 CNS
[11] = test system: U251 CNS
[12] = test system: OVCAR-4 ovarian
[13] = test system: NCI-H23 lung
[14] = test system: TK-10 renal
[15] = test system: UO-31 renal
[16] = test system: IGROV1 ovarian
[17] = test system: HT29 colon
[18] = test system: KM12 colon
[19] = test system: SK-MEL-2 melanoma
[20] = test system: RXF 393 renal
[21] = test system: NCI/ADR-RES ovarian
[22] = test system: UACC-62 melanoma
[23] = test system: SK-MEL-5 melanoma
[24] = test system: SW-620 colon
[25] = test system: MDA-N
[26] = test system: M14 melanoma
[27] = test system: OVCAR-8 ovarian
[28] = test system: EKVX NSCLC
[29] = test system: OVCAR-5 ovarian
[30] = test system: RPMI-8226 leukemia
[31] = test system: CAKI-1 renal
[32] = test system: SK-MEL-28 melanoma
[33] = test system: HOP-92 NSCLC
[34] = test system: PC-3 prostate
[35] = test system: ACHN renal
[36] = test system: UACC-257 melanoma
[37] = test system: MCF7 breast
[38] = test system: A498 renal
[39] = test system: DU-145 prostate
[40] = test system: NCI-H226 lung
[41] = test system: NCI-H460 lung
[42] = test system: SF-295 CNS
[43] = test system: BT-549 breast
[44] = test system: SNB-75 CNS
[45] = test system: HS 578T breast
[46] = test system: CCRF-CEM leukemia
[47] = test system: 786-0 renal
[48] = test system: MDA-MB-231 breast
[49] = test system: T-47D breast
[50] = test system: SK-OV-3 ovarian
[51] = test system: NCI-H522 lung
[52] = test system: HCC-2998 colon
[53] = test system: K-562 leukemia
[54] = test system: A549 NSCLC
[55] = test system: MOLT-4 leukemia
[56] = test system: LOX IMVI melanoma
[57] = test system: HL-60(TB) leukemia
[58] = test system: OVCAR-3 ovarian
[59] = test system: MALME-3M melanoma

With `CSc1ccc(NC(=O)C2CCCCC2C(=O)O)cc1` (stereo not drawn) the TGI [1] was greater than 100 µM, the TGI [2] was greater than 100 µM and the TGI [3] was greater than 100 µM. For the same compound, the TGI [4] was greater than 100 µM, the TGI [5] was greater than 100 µM and the TGI [6] was greater than 100 µM. It also gave a TGI [7] greater than 100 µM, a TGI [8] greater than 100 µM and a TGI [9] greater than 100 µM. For the same compound, the TGI [10] was greater than 100000 nM, the TGI [11] was greater than 100 µM and the TGI [12] was greater than 100 µM. For the same compound, the TGI [13] was greater than 100000 nM, the TGI [14] was greater than 100 µM and the TGI [15] was greater than 100000 nM. For the same compound, the TGI [16] was greater than 100000 nM, the TGI [17] was greater than 100 µM and the TGI [18] was greater than 100 µM. The TGI [19] was greater than 100000 nM, the TGI [20] was greater than 100000 nM and the TGI [21] was greater than 100 µM. For the same compound, the TGI [22] was greater than 100 µM, the TGI [23] was greater than 100 µM and the TGI [24] was greater than 100 µM. It also gave a TGI [25] greater than 100 µM, a TGI [26] greater than 100000 nM and a TGI [27] greater than 100 µM. The TGI [28] was greater than 100 µM, the TGI [29] was greater than 100 µM and the TGI [30] was greater than 100 µM. It also gave a TGI [31] greater than 100 µM, a TGI [32] greater than 100 µM and a TGI [33] greater than 100 µM. The TGI [34] was greater than 100 µM, the TGI [35] was greater than 100 µM and the TGI [36] was greater than 100 µM. The TGI [37] was greater than 100 µM, the TGI [38] was greater than 100000 nM and the TGI [39] was greater than 100 µM. For the same compound, the TGI [40] was greater than 100 µM, the TGI [41] was greater than 100 µM and the TGI [42] was greater than 100 µM. For the same compound, the TGI [43] was greater than 100000 nM, the TGI [44] was greater than 100 µM and the TGI [45] was greater than 100 µM. It also gave a TGI [46] greater than 100 µM, a TGI [47] greater than 100 µM and a TGI [48] greater than 100 µM. For the same compound, the TGI [49] was greater than 100 µM, the TGI [50] was greater than 100 µM and the TGI [51] was greater than 100000 nM. For the same compound, the TGI [52] was greater than 100000 nM, the TGI [53] was greater than 100 µM and the TGI [54] was greater than 100 µM. For the same compound, the TGI [55] was greater than 100 µM, the TGI [56] was greater than 100 µM and the TGI [57] was greater than 100 µM. It also gave a TGI [58] greater than 100 µM and a TGI [59] greater than 100 µM.

`C[C@]12OC(=O)[C@]3(O)CC[C@H]4[C@@H](C[C@@H](O)[C@@]5(Cl)CC=CC(=O)[C@]45C)[C@]45OCC6C(=O)O[C@@H]1C[C@@]6(C)[C@H](C4=O)[C@@]32O5` (stereo partly drawn) was tested, and the TGI [1] was 7.39 µM, the TGI [2] was 10.3 µM and the TGI [3] was 19.3 µM. It also gave a TGI [4] of 14.2 µM, a TGI [5] of 18.2 µM and a TGI [6] of 7.61 µM. The TGI [7] was 12 µM, the TGI [8] was 17.1 µM and the TGI [9] was 23.8 µM. It also gave a TGI [10] of 1970 nM, a TGI [11] of 15 µM and a TGI [12] of 8.63 µM. For the same compound, the TGI [13] was 1830 nM, the TGI [14] was 7.18 µM and the TGI [15] was 2570 nM. For the same compound, the TGI [16] was 2740 nM, the TGI [17] was 5.35 µM and the TGI [18] was 8.59 µM. It also gave a TGI [19] of 2710 nM, a TGI [20] of 1040 nM and a TGI [21] of 60.6 µM. For the same compound, the TGI [22] was 4.2 µM, the TGI [23] was 13.2 µM and the TGI [24] was 12.6 µM. It also gave a TGI [25] of 17 µM, a TGI [26] of 2470 nM and a TGI [27] of 8.39 µM. For the same compound, the TGI [28] was 4.91 µM, the TGI [29] was 3.23 µM and the TGI [30] was 8.6 µM. For the same compound, the TGI [31] was 4.03 µM, the TGI [32] was 75 µM and the TGI [33] was 5.68 µM. The TGI [34] was 8.71 µM, the TGI [35] was 5.9 µM and the TGI [36] was 8.2 µM. It also gave a TGI [37] of 4 µM, a TGI [38] of 2910 nM and a TGI [39] of 24.3 µM. For the same compound, the TGI [40] was 9.37 µM, the TGI [41] was 9.54 µM and the TGI [42] was 12.4 µM. For the same compound, the TGI [43] was 2270 nM, the TGI [44] was 19.6 µM and the TGI [45] was 44.5 µM. It also gave a TGI [46] of 6.69 µM, a TGI [47] of 11.3 µM and a TGI [48] of 28.6 µM. It also gave a TGI [49] of 23.3 µM, a TGI [50] of 10.9 µM and a TGI [51] of 1140 nM. For the same compound, the TGI [52] was 2550 nM, the TGI [53] was 23.8 µM and the TGI [54] was 75 µM. It also gave a TGI [55] of 17.4 µM, a TGI [56] of 6.46 µM and a TGI [57] of 12.8 µM. For the same compound, the TGI [58] was 6.65 µM and the TGI [59] was 5.04 µM.
